In one assay the target is NAMPT (Homo sapiens (Human), UniProt P43490). Put plainly: Assay 1: Biochemical Inhibition Assay (NAMPT enzymatic reaction, NMN quantified by mass spectrometry).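 Further: recombinant His-tagged human NAMPT preincubated with compound 15 min, then reacted 30 min at rt with 1 µM NAM, 100 µM PRPP, 2.5 mM ATP, NMN product read by RapidFire MS, normalized to L-Cystathionine internal standard.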 Conditions: read-out: Biochemical (IC50).
A further assay relates to A2780 cells. As to the kind of experiment: Assay 2: In-Vitro Cell Proliferation Assay (A2780 cells, SRB readout, 72 hours).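 Further: viable cells counted via sulforhodamine B staining, absorbance at 570 nm, after 72 h exposure at 37 °C, DMSO 0.1% as control, media-only background subtracted.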 The class given is cell-based. Conditions: A2780 cells, 72 hours, SRB, read-out: Cell Proliferation (IC50).

Where two headings read alike, the source gives them in different places.

Sequence of NAMPT (P43490 whole entry): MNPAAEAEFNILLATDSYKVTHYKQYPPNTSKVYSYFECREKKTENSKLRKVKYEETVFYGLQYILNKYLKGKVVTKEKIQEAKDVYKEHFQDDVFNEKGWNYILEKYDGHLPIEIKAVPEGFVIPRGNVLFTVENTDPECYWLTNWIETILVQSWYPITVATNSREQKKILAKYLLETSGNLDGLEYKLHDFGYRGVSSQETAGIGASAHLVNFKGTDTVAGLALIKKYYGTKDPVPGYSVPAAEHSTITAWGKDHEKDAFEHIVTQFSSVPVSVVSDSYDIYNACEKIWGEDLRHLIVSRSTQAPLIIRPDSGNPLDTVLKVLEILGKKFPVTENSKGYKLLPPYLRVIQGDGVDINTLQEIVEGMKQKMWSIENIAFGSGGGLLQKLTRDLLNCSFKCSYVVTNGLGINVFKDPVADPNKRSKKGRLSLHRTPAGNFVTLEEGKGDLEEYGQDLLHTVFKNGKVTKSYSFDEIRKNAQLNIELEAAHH

Turning to `O=C(NCc1ccc(S(=O)(=O)N2CCC(NCC(F)F)CC2)cc1)c1cnc2[nH]ncc2c1` [Example 37, 1H-Pyrazolo[3,4-b]pyridine-5-carboxylic acid 4-[4-(2,2-difluoro-ethylamino)-piperidine-1-sulfonyl]-benzylamide], the IC50 at NAMPT amounted to 44.1 nM; in the assay with A2780 cells (Homo sapiens, A2780, 72 h), 13.9 nM.

As for `O=C(NCc1ccc(S(=O)(=O)[C@@H]2CCOC2)cc1)c1cnc2nccn2c1` [Example 226, N-[[4-[(3R)-tetrahydrofuran-3-yl)sulfonylphenyl]methyl] imidazo[1,2-a]pyrimidine-6-carboxamide], the IC50 at NAMPT is 8.88 nM; with A2780 cells (Homo sapiens, A2780, 72 h), 457 nM.

Consider `O=C(NCc1ccc(S(=O)(=O)C2CCN(S(=O)(=O)c3ccccc3)CC2)cc1)c1cnc2[nH]ncc2c1` [Example 352, N-[[4-[[1-(benzenesulfonyl)-4-piperidyl]sulfonyl]phenyl]methyl]-1H-pyrazolo[3,4-b]pyridine-5-carboxamide], for which the IC50 is 18 nM on NAMPT and 20.3 nM with A2780 cells (Homo sapiens, A2780, 72 h).

As to `CC1(O)CCN(S(=O)(=O)c2ccc(CNC(=O)c3ccc4nccn4c3)cc2)CC1` [Example 145, Imidazo[1,2-a]pyridine-6-carboxylic acid 4-(4-hydroxy-4-methyl-piperidine-1-sulfonyl)-benzylamide], the IC50 on NAMPT came out at 28.4 nM; in the assay on A2780 cells (Homo sapiens, A2780, 72 h) it was 12.5 nM.

`CC(C)CN1CCC([S+]([O-])c2ccc(CNC(=O)c3cnc4nccn4c3)cc2)CC1` (racemic) [Example 179, Imidazo[1,2-a]pyrimidine-6-carboxylic acid 4-(1-isobutyl-piperidine-4-sulfinyl)-benzylamide]: the IC50 is 7.6 nM on NAMPT and 31.1 nM in the assay with A2780 cells (Homo sapiens, A2780, 72 h).

Regarding `O=C(NCc1ccc(S(=O)(=O)N2CC3COCC(C2)C3O)cc1)c1ccc2nccn2c1` (stereo not drawn) [Example 138, Imidazo[1,2-a]pyridine-6-carboxylic acid 4-(9-hydroxy-3-oxa-7-aza-bicyclo[3.3.1]nonane-7-sulfonyl)-benzylamide], the IC50 was 28.8 nM at NAMPT and 24.9 nM in the assay on A2780 cells (Homo sapiens, A2780, 72 h).

Turning to `O=C(NCc1ccc(S(=O)(=O)N2CCN(CCO)CC2)cc1)c1ccc2nccn2c1` [Example 94, Imidazo[1,2-a]pyridine-6-carboxylic acid 4-[4-(2-hydroxy-ethyl)-piperazine-1-sulfonyl]-benzylamide], the IC50 at NAMPT was 75.9 nM; in the assay with A2780 cells (Homo sapiens, A2780, 72 h), 29 nM.

As for `O=C(NCc1ccc(S(=O)(=O)N2CCC[C@H](O)C2)cc1)c1cc2ccncc2o1` [Example 51, Furo[2,3-c]pyridine-2-carboxylic acid 4-((S)-3-hydroxy-piperidine-1-sulfonyl)-benzylamide], the figures for the IC50 at NAMPT and in the assay on A2780 cells were 22.2 nM and 39.7 nM, respectively.

As to `CS(=O)(=O)N1CCC(S(=O)(=O)c2ccc(CNC(=O)c3cnc4[nH]ncc4c3)cc2)CC1` [Example 349, N-[[4-[(1-methylsulfonyl-4-piperidyl)sulfonyl]phenyl]methyl]-1H-pyrazolo[3,4-b]pyridine-5-carboxamide], the IC50 on NAMPT worked out at 73.5 nM; in the assay on A2780 cells (Homo sapiens, A2780, 72 h) it was 52.2 nM.

As to `O=C(NCc1ccc(S(=O)(=O)N2CCC3(CCCN3)C2)cc1)c1ccc2nccn2c1` (stereo not drawn) [Example 257, N-[[4-(1,7-diazaspiro[4.4]nonan-7-ylsulfonyl)phenyl]methyl] imidazo[1,2-a]pyridine-6-carboxamide], the results for the IC50 on NAMPT and in the assay on A2780 cells were 46.8 nM and 26.5 nM, respectively.

With `O=C(NCc1ccc(S(=O)(=O)C2CCCOC2)cc1)c1cnc2[nH]ncc2c1` (stereo not drawn) [Example 267, N-[(4-tetrahydropyran-3-ylsulfonylphenyl)methyl]-1H-pyrazolo[3,4-b]pyridine-5-carboxamide], the IC50 on NAMPT amounted to 219 nM; with A2780 cells (Homo sapiens, A2780, 72 h), 176 nM.

With `O=C(NCc1ccc(S(=O)(=O)[C@H]2CCOC2)cc1)c1cnc2nccn2c1` [Example 222, N-[[4-[(3S)-tetrahydrofuran-3-yl]sulfonylphenyl]methyl] imidazo[1,2-a]pyrimidine-6-carboxamide], the IC50 amounted to 9.77 nM on NAMPT and 423 nM in the assay with A2780 cells (Homo sapiens, A2780, 72 h).

`O=C(NCc1ccc(S(=O)(=O)N2CCOC3(CCNCC3)C2)cc1)c1ccc2nccn2c1` [Example 319, N-[[4-(1-oxa-4,9-diazaspiro[5.5]undecan-4-ylsulfonyl)phenyl]methyl] imidazo[1,2-a]pyridine-6-carboxamide]: the IC50 came to 106 nM at NAMPT and 102 nM with A2780 cells (Homo sapiens, A2780, 72 h).

As to `O=C(NCc1ccc(S(=O)(=O)N2CCCCC2)cc1)c1ccn2nccc2n1` [Example 58, Pyrazolo[1,5-a]pyrimidine-5-carboxylic acid 4-(piperidine-1-sulfonyl)-benzylamide], the IC50 came to 240 nM at NAMPT and 2000 nM in the assay on A2780 cells (Homo sapiens, A2780, 72 h).

For the compound `CC(C)(C)OC(=O)N1CCC2(CCCN2S(=O)(=O)c2ccc(CNC(=O)c3ccc4nccn4c3)cc2)CC1` [Example 185, 1-(4-{[(Imidazo[1,2-a]pyridine-6-carbonyl)-amino]-methyl}-benzenesulfonyl)-1,8-diaza-spiro[4.5]decane-8-carboxylic acid tert-butyl ester], the IC50 on NAMPT was determined as 283 nM; with A2780 cells (Homo sapiens, A2780, 72 h), 118 nM.

On to `CC(C)(C)OC(=O)NC1CC2(CCN(S(=O)(=O)c3ccc(CNC(=O)c4ccc5nccn5c4)cc3)CC2)C1` [Example 127], for which the IC50 came to 14.5 nM on NAMPT and 2.77 nM with A2780 cells (Homo sapiens, A2780, 72 h).

On to `CCCN1CCC([S+]([O-])c2ccc(CNC(=O)c3ccc4nccn4c3)cc2)CC1` (stereo not drawn) [Example 375, N-[[4-[(1-propyl-4-piperidyl)sulfinyl]phenyl]methyl)imidazo[1,2-a]pyridine-6-carboxamide], for which the IC50 at NAMPT is 27.5 nM; with A2780 cells (Homo sapiens, A2780, 72 h) it was 24.5 nM.

For the compound `O=C(NCc1ccc(S(=O)(=O)N2CCCC(O)C2)cc1)c1ccc2nccn2c1` (racemic) [Example 19, Imidazo[1,2-a)pyridine-6-carboxylic acid 4-(3-hydroxy-piperidine-1-sulfonyl)-benzylamide], the IC50 on NAMPT was found to be 18.1 nM; in the assay on A2780 cells (Homo sapiens, A2780, 72 h) it was 25.3 nM.

As for `CN1CCN(C(=O)C2CN(S(=O)(=O)c3ccc(CNC(=O)c4ccc5nccn5c4)cc3)C2)CC1` [Example 246, N-[[4-[3-(4-methylpiperazine-1-carbonyl)azetidin-1-yl]sulfonylphenyl]methyl] imidazo[1,2-a]pyridine-6-carboxamide], the IC50 at NAMPT is 7.03 nM; in the assay on A2780 cells (Homo sapiens, A2780, 72 h), 27.3 nM.

Take `O=C(NCc1ccc(S(=O)(=O)C2CCN(C3COC3)CC2)cc1)c1cc2ccncc2s1` [Example 252, N-[[4-[[1-(oxetan-3-yl)-4-piperidyl]sulfonyl]phenyl]methyl]thieno[2,3-c]pyridine-2-carboxamide]: the IC50 on NAMPT is 4.27 nM; with A2780 cells it was 1.48 nM.

As for `CN1CC2CCN(S(=O)(=O)c3ccc(CNC(=O)c4ccc5nccn5c4)cc3)C2C1` (racemic) [Example 143, cis-Imidazo[1,2-a]pyridine-6-carboxylic acid 4-(5-methyl-hexahydro-pyrrolo[3,4-b]pyrrole-1-sulfonyl)-benzylamide], the IC50 was 100 nM on NAMPT and 20.4 nM in the assay on A2780 cells (Homo sapiens, A2780, 72 h).

On to `O=C(NCc1ccc(S(=O)(=O)N2CC(F)(F)C2)cc1)c1cc2ccncc2o1` [Example 301, N-[[4-(3,3-difluoroazetidin-1-yl)sulfonylphenyl]methyl]furo [2,3-c]pyridine-2-carboxamide], for which the IC50 came out at 46.7 nM on NAMPT and 83.6 nM in the assay with A2780 cells (Homo sapiens, A2780, 72 h).

Turning to `O=C(NCc1ccc(S(=O)(=O)C2CCN(CC(F)(F)F)CC2)cc1)c1cc2cnccc2[nH]1` [Example 211, N-[[4-[[1-(2,2,2-trifluoroethyl)-4-piperidyl]sulfonyl]phenyl]methyl]-1H-pyrrolo[3,2-c]pyridine-2-carboxamide], the IC50 on NAMPT came out at 15.4 nM; in the assay on A2780 cells (Homo sapiens, A2780, 72 h) it was 3.23 nM.

`O=C(NCc1ccc(S(=O)(=O)[C@@H]2CCOC2)cc1)c1cc2cnccc2[nH]1` [Example 225, N-[[4-[(3R)-tetrahydrofuran-3-yl]sulfonylphenyl]methyl]-1H-pyrrolo[3,2-c]pyridine-2-carboxamide]: the IC50 worked out at 118 nM at NAMPT and 320 nM in the assay on A2780 cells (Homo sapiens, A2780, 72 h).

In the case of `O=C(NCc1ccc(S(=O)(=O)N2CCCCC2)cc1)c1ccn2cncc2c1` [Example 308, N-[[4-(1-piperidylsulfonyl)phenyl]methyl]imidazo[1,5-a]pyridine-7-carboxamide], the IC50 was found to be 1420 nM on NAMPT and 2000 nM in the assay with A2780 cells (Homo sapiens, A2780, 72 h).

Take `O=C(NCc1ccc(S(=O)(=O)N2CCC3(CCNCC3)C2)cc1)c1ccc2nccn2c1` [Example 256, N-[[4-(2,8-diazaspiro[4.5]decan-2-ylsulfonyl)phenyl]methyl] imidazo[1,2-a]pyridine-6-carboxamide]: the IC50 on NAMPT worked out at 53.7 nM; in the assay on A2780 cells (Homo sapiens, A2780, 72 h), 66.9 nM.

For the compound `O=C(NCc1ccc(S(=O)(=O)N2CC3CC(F)(F)CC3C2)cc1)c1cc2ccncc2o1` (stereo not drawn) [Example 297, N-[[4-[(5,5-difluoro-1,3,3a,4,6,6a-hexahydrocyclopenta[c]pyrrol-2-yl)sulfonyl]phenyl]methyl]furo [2,3-c]pyridine-2-carboxamide], the IC50 on NAMPT turned out to be 16.6 nM; in the assay with A2780 cells (Homo sapiens, A2780, 72 h), 51.2 nM.

As to `O=C(NCc1ccc(S(=O)(=O)N2CC3(CCCNC3)C2)cc1)c1ccc2nccn2c1` [Example 253, N-[[4-(2,8-diazaspiro[3,5]nonan-2-ylsulfonyl)phenyl]methyl] imidazo[1,2-a]pyridine-6-carboxamide], the IC50 on NAMPT amounted to 27.4 nM; in the assay with A2780 cells (Homo sapiens, A2780, 72 h), 31.3 nM.

`CC(=O)N1CCC(S(=O)(=O)c2ccc(CNC(=O)c3ccc4nccn4c3)cc2)CC1` [Example 171, Imidazo[1,2-a]pyridine-6-carboxylic acid 4-(1-acetyl-piperidine-4-sulfonyl)-benzylamide]: the IC50 on NAMPT was found to be 39.8 nM; with A2780 cells (Homo sapiens, A2780, 72 h) it was 42.2 nM.

Regarding `Nc1ncc2c(n1)CN(C(=O)NCc1ccc(S(=O)(=O)C3CCOCC3)cc1)C2` [Example 277, 2-amino-N-[(4-tetrahydropyran-4-ylsulfonylphenyl)methyl]-5,7-dihydropyrrolo[3,4-d]pyrimidine-6-carboxamide], the IC50 came to 2000 nM on NAMPT and 2000 nM with A2780 cells (Homo sapiens, A2780, 72 h).
